Results on 90 compounds are retold here after a melting point compilation (Tetko et al.; mined from patent text by program, amines drawn as free bases though some values may be those of a salt).

Bounds are passed on as bounds.

Turning to `O=C(O)c1ccccc1NCCNc1ccccc1F`, the melting point fell in the range of 127 to 128 °C.
On to `CC(C)c1cc(NC(=O)C(CS)Cc2ccccc2)cc(C(=O)O)c1` (stereo not given), for which the melting point lay within 205 to 209 °C.
The value for `COc1ccc(Cn2ccnc2)cc1` was 157 to 159 °C; that for `O=c1ccnc(NCCN(Cc2ccccc2)c2ccccn2)[nH]1` was 187 to 190 °C; that for `NCCNc1ccc(NCCO)cc1[N+](=O)[O-]` was 112 °C.
The value for `CCOC(=O)N1CCC(O)(c2cc(F)c(Br)cc2F)CC1` was 133 to 136 °C.
For the compound `C#CCOc1ccc2c(c1)Sc1cc([N+](=O)[O-])ccc1N2`, the melting point lay within 226 to 227 °C.
As to `NC(Cc1cc(O)c2c(c1)C(=O)c1cccc(O)c1C2=O)C(=O)O` (stereo not given), the melting point was 210 to 212 °C.
Turning to `O=C(O)c1cc(OCCCOc2ccc(O)cc2)cc(OCCCOc2ccc(O)cc2)c1`, the melting point lay in the range of 160 to 162 °C.
For `Cc1c(Cl)c(Oc2ncc(C(F)(F)F)cc2Cl)nn1C(=O)NC1CCCCC1`, the melting point lay within 94 to 96 °C.
As for `CCOC(=O)c1cnn(-c2c(Cl)cc(C(F)(F)F)cc2Cl)c1`, the figure is 57 to 59 °C; as for `CC1(C)COS(=O)(=O)OC1`, 80 to 82 °C; as for `CC(CN=C1c2cccc3cccc(c23)N1C(c1ccccc1)c1ccccc1)Cn1ccnc1` (stereo not given), 51 to 56 °C.
`Nc1nnc(-c2ccccc2OC(F)(F)C(F)F)c(N)n1` had a melting point of 158 to 160 °C.
`COc1cccc(-c2cc(=O)c3cccc(C(=O)Nc4ccc(CCCCN5CCc6cc(OC)c(OC)cc6C5)cc4)c3[nH]2)c1` yielded a melting point of 116 °C.
As for `CC(=O)Nc1nc2c(s1)-c1nc(N3CCOCC3)ncc1C2`, the melting point is greater than 300 °C.
In turn, `O=C(c1ccc(Br)cc1)c1ccc([N+](=O)[O-])cc1` registered a melting point of 123 to 124 °C.
Compound `COc1cc(C(C)=O)c(O)cc1N1CCN(Cc2ccccc2)CC1` registered a melting point of 90 to 92 °C.
In the case of `CNS(=O)(=O)Oc1ccccc1OC`, the melting point was in the range of 68 to 71 °C.
In the case of `Cc1nc(-c2cccc(C(F)(F)F)c2)ccc1CO`, the melting point was in the range of 73 to 75 °C.
`O=[N+]([O-])c1ccc(F)cc1OCC(F)(F)F` had a melting point of 44 to 45 °C.
For the compound `CCCCCCCCOc1ccc(-c2nnn[nH]2)c(O)c1`, the melting point lay in the range of 142 to 146 °C.
Compound `Cc1cc(-n2c(C)nc3ccccc32)ccc1[N+](=O)[O-]` yielded a melting point of 144 to 146 °C.
Consider `CCC(CC)c1nn(-c2ncc(C(F)(F)F)cn2)cc1CCCOc1c(CC(=O)O)cccc1OC`, for which the melting point fell in the range of 163 to 164 °C.
In turn, `CCCCCCCCCCCCCCCCCCNC(=O)OCC(COC)CN(C(C)=O)S(=O)(=O)CCCI` (stereo not given) gave a melting point of 71 to 72 °C.
As for `Cc1cc(-c2ncn3c(C(F)(F)F)cc(-c4ccc(C(F)(F)F)c(OCC(F)(F)F)c4)nc23)ccn1`, the figure is 189 °C.
Regarding `CCCCc1oc2ccc(C(=O)OC)cc2c1C(=O)c1ccc(O)cc1`, the melting point is 152 to 153 °C.
Regarding `COc1cc(C(C)=O)ccc1OCCCCl`, the melting point is 57.8 to 58.5 °C.
The compound `CC(=O)OCc1c(C)cc(C)c(NC(=O)c2sccc2S(=O)(=O)Nc2onc(C)c2C)c1C` gave a melting point of 75 to 77 °C.
For the compound `CC(C)(C)c1ccc(S(=O)(=O)CS(=O)(=O)c2ccc(C(C)(C)C)cc2)cc1`, the melting point lay within 150 to 152 °C.
`CC(C)(C)C(=O)Nc1cccc(-c2ccnc3c(C(=O)c4ccccc4)cnn23)c1` showed a melting point of 160 to 161 °C.
`OC(Cn1ccnc1)(c1ccc(F)cc1)c1ccc(-c2ccccc2)cc1` (stereo not given) returned a melting point of 220 °C.
`Cc1cc(C2(C(F)(F)F)CC(c3ccc(S(C)=O)cc3)=NO2)ccc1NC(=O)c1cccc(I)c1C(=O)NC(C)C` (stereo not given): the melting point lay in the range of 134 to 152 °C.
As for `COc1ccc(-c2nc(Sc3ccc(C(F)(F)F)cc3[N+](=O)[O-])[nH]c2-c2ccc(OC)cc2)cc1`, the figure is 264 to 266 °C; as for `NS(=O)(=O)c1ccc(-n2nc(C(F)(F)F)cc2-c2ccc([N+](=O)[O-])cc2)cc1`, 173 to 175 °C; as for `COC(=O)c1nccnc1Cl`, 30 °C.
`Nc1cccc(-c2ccc(Cl)nn2)c1`: the melting point fell in the range of 118 to 121 °C.
Consider `CC(=O)c1cc2c(s1)CCCc1cc(=O)n(-c3ccc(Cl)cc3)nc1-2`, for which the melting point lay in the range of 164 to 166 °C.
As for `Cc1nccn1-c1nc(-c2ccc(Cl)cc2)c(CCCN2C(=O)CN(C)C2=O)o1`, the figure is 105 to 106 °C.
As for `COc1ccc(C=C(C#N)C=O)cc1OC`, the melting point is 157 to 158 °C.
Regarding `CCOc1cc2c(cn1)[nH]c1ccccc12`, the melting point fell in the range of 130 to 133 °C.
As for `N#CCc1cc(O)cc2nc(-c3ccc(O)cc3)oc12`, the figure is 170 to 180 °C; as for `COC(CC1=C(C#N)C(c2cccc3nonc23)c2c[nH]nc2N1)OC` (stereo not given), 115 °C; as for `O=C1OC(=O)C2=C1SCC(c1ccccc1)S2` (stereo not given), 131 to 133 °C.
On to `CC(=O)OCCN(C)CC#CC1=Cc2ccccc2Sc2ccc(Cl)cc21`, for which the melting point lay in the range of 48 to 51 °C.
As for `C[C@@H](NC(=O)c1nsc(-c2ccc(Cl)cc2)n1)[C@](O)(Cn1cncn1)c1ccc(F)cc1F`, the figure is 186 to 187 °C; as for `CC(=O)CCC(CCC(C)=O)(C(C)=O)C(C)=O`, 59 °C.
As for `Clc1ccc(C(=C2SCCCS2)C2CC2)cc1`, the melting point lay in the range of 91 to 95 °C.
As for `CCOC(=O)c1sc(N)nc1C(C)(C)C`, the figure is 99 to 100 °C.
With `Nc1ccc(CCN2CCC(Nc3nc4ccccc4n3Cc3ccc(F)cc3)CC2)cc1`, the melting point stood at 195 °C.
The value for `O=CN(Cc1ccccc1)Cc1ccccc1` was 53 to 54.5 °C.
As to `N=C(N)Nc1ncc(CSCCNC2=NS(=O)N=C2N)s1` (stereo not given), the melting point lay in the range of 85 to 132 °C.
For the compound `O=c1oc(-c2ccccc2)cc(O)c1C(CC1CC1)SC1CCCCC1` (stereo not given), the melting point lay in the range of 69 to 71 °C.
For `CN(C)C1CCc2[nH]c3ccccc3c2C1` (stereo not given), the melting point worked out at 138 °C.
As for `CNC(=O)[C@@H](C[C@H](O)[C@H](CC1CCCCC1)NC(=O)[C@H](Cc1cscn1)NC(=O)OC(C)(C)C)C(C)(C)O`, the figure is 203 to 205 °C.
The compound `CC(=O)Oc1ccc(-c2cnc(N(S(=O)(=O)Cc3ccccc3)S(=O)(=O)Cc3ccccc3)c(Cc3ccccc3)n2)cc1` registered a melting point of 84 to 86.5 °C.
`O=c1c(Cl)c(OCc2ccc(Cl)cc2)cnn1CCCBr` returned a melting point of 83 to 87 °C.
Turning to `N#Cc1ccc2c(c1)C1(COc3cc4c(cc31)OCCO4)C(=O)N2Cc1ccccn1` (stereo not given), the melting point is 198 to 199 °C.
As for `O=C(O)Cc1ccc2c(c1)C(=O)c1cc3ccccc3cc1C2=O`, the figure is greater than 220 °C; as for `O=C(CCCOc1cccc(CNC(=O)c2nc3ccccc3c(=O)[nH]2)c1)NO`, 164 to 168 °C; as for `Fc1cc(Cl)c2ccc(Cl)cc2n1`, 105 to 106 °C.
Take `CC1=CC(C)(C)Nc2cc3oc(=O)cc(C)c3cc21`: the melting point was in the range of 270 to 274 °C.
`COC(=O)c1ccc(C#CC#C[Si](C)(C)C)cc1` displayed a melting point of 67 to 68 °C.
`Cc1ccc(C2(Cl)c3ccccc3C(=O)c3ccccc32)cc1` displayed a melting point of 136 to 140 °C.
As for `CC(C)CCCC(C)C1CCC2C3CC=C4CC(OCCCCCCSC5OC(CO)C(O)C(O)C5O)CCC4(C)C3CCC12C` (stereo not given), the figure is 110 °C; as for `O=C(O)c1ccc2c(oc3ccccc32)c1C(=O)O`, 260 to 262 °C; as for `CC(=O)c1ccc(/C=C(\C)c2ccc3c(c2)C(C)(C)CC3(C)C)cc1`, 130 to 131 °C.
For `CC(C)(C)OC(=O)CSC(NCc1ccccc1)=C1C(=O)CCCC1=O`, the melting point lay within 142 to 143 °C.
`CC(C)c1cccc(C(C)C)c1NC(=O)CNC(c1ccc(F)cc1)c1ccc(F)cc1`: the melting point lay within 150 to 151 °C.
`Cc1ccc(OCC(O)CNC(C)C)nc1` (stereo not given) had a melting point of 62 to 67 °C.
As for `O=c1ccc(-c2ccc(-c3ccc(=O)[nH]n3)cc2)n[nH]1`, the figure is greater than 250 °C; as for `Cc1ccc(C2=CCC(C)(C)c3cc(C(=O)c4ccc5cc(C(=O)O)ccc5c4)ccc32)cc1`, 267 °C.
As for `c1ccc2c(c1)cnn2-c1nc(NC2CCCCC2)c2ccccc2n1`, the melting point was 278 to 281 °C.
`Cc1cnc(Nc2nc(-c3ccccc3)nc3ccccc23)s1` registered a melting point of 215 to 216 °C.
`CCC(CC)C(c1ccnn1-c1ccccc1)N(C)S(=O)(=O)c1ccc(Cl)cc1` (stereo not given) yielded a melting point of 86.5 to 89 °C.
As for `Nc1ccc2c(c1)CN(CCC1CCCCN1S(=O)(=O)c1cccc3ccccc13)CC2` (stereo not given), the figure is 212 to 218 °C; as for `Cc1nc(C(O)COc2ccc(CC3SC(=O)NC3=O)cc2)c(C)o1` (stereo not given), 223 to 224 °C.
The compound `CNc1cc(SC2CCN(C)CC2)c(Cl)cc1[N+](=O)[O-]` yielded a melting point of 102 °C.
In the case of `Cc1oc(-c2ccccc2)nc1C(O)c1cc2cc(Br)ccc2o1` (stereo not given), the melting point was in the range of 152 to 154 °C.
`CC(=O)c1cc(C)cc(Br)c1O` had a melting point of 81 to 82 °C.
Consider `CC(C)(C)C(NC(=O)c1cccc(Br)c1)Nc1c(Nc2cccnc2Cl)c(=O)c1=O` (stereo not given), for which the melting point fell in the range of 257 to 259 °C.
As to `COc1ccc(Oc2ccc(OCc3ccccc3)cc2[N+](=O)[O-])cc1`, the melting point is 120 °C.
For `O=c1oc(=O)n(CC2CC2)c2ccccc12`, the melting point is 118 to 121 °C.
The compound `CS(=O)(=O)Nc1ccc(CO)cc1Sc1ccc(F)cc1F` returned a melting point of 78 to 79 °C.
The value for `O=c1nc(-c2ccccc2)c2cc(Cl)sc2n1CC1CC1` was 149 to 151 °C; that for `N#Cc1ccc(O)c(O)c1O` was 172 °C.
In turn, `CCCOc1ccccc1-c1nc(N)c(NC(=O)C(F)(F)F)c(=O)[nH]1` yielded a melting point of 203 to 204 °C.
`COC(=O)C(C)n1nnc2ccc(OCc3ccccc3)cc21` (stereo not given) yielded a melting point of 88 to 91.5 °C.
Compound `CC(C)Nc1cccnc1N1CCN(C(=O)c2ccc(C(=O)NCC3CCCO3)cn2)CC1` (stereo not given) showed a melting point of 108 to 110 °C.
Compound `NC(=O)c1cccc(C2(O)C3CCC2CN(Cc2ccccc2)C3)c1` (stereo not given) returned a melting point of 210 to 214 °C.

The term melting point denotes the temperature, or range, at which the solid turns liquid.
